Assay results reported in BigSolDB 2.1.

CC(C)C(=O)Nc1ccc([N+](=O)[O-])c(C(F)(F)F)c1
solubility (mole fraction)
Details	278.15 K	283.15 K	288.15 K	293.15 K	298.15 K	303.15 K	308.15 K	313.15 K	318.15 K	323.15 K
in 2-ethoxyethanol	0.132	0.142	0.153	0.164	0.176	0.19	0.204	0.22	0.237	0.258
in 2-methoxyethanol	0.121	0.13	0.142	0.153	0.166	0.18	0.195	0.212	0.229	0.25
in DMF	0.382	0.391	0.401	0.41	0.421	0.433	0.447	0.462	0.476	0.494
in DMSO	–	–	–	0.433	0.443	0.455	0.469	0.481	0.496	0.512
in acetone	0.162	0.173	0.185	0.196	0.209	0.223	0.238	0.255	0.273	0.293
in dichloromethane	0.00732	0.00924	0.0117	0.0143	0.0182	0.0223	0.0273	–	–	–
in ethanol	0.0336	0.0406	0.0503	0.0586	0.0699	0.083	0.0979	0.116	0.135	0.158
in ethyl acetate	0.0998	0.109	0.119	0.131	0.143	0.156	0.17	0.187	0.205	0.225
in ethylene glycol	0.00089	0.00116	0.0015	0.00195	0.00241	0.00308	0.0039	0.00491	0.0061	0.00758
in methanol	0.0296	0.0362	0.0446	0.0532	0.065	0.078	0.0933	0.11	0.131	0.153
in methyl acetate	0.0945	0.103	0.113	0.123	0.135	0.144	0.16	0.175	0.192	0.21
